Data set [1] in a line: Concentration of free hydroxyproline in serum and skin after oral intake. The data set is classed as in vivo. As to conditions: HOS:HR-1 mouse, 500 mg/kg oral, 0.5-24 hours, FIGS. 1 and 2. How it is done: HOS:HR-1 mouse (seven-week-old female; purchased from Japan SLC, Inc.) was used in the test.
Trans-4-hydroxy-L-proline (Kyowa Hakko Kogyo Co., Ltd.; hereinafter referred to as hydroxyproline) was dissolved in purified water at a concentration of 50 mg/ml, and the resulting solution was orally administered in an amount of 500 mg/kg. After 0.5, 1, 2, 4, 6 and 24 hours, blood was collected from the abdominal vena cava of the mouse under diethyl ether inhalation anesthesia to obtain a serum. After cervical dislocation, dorsal skin was collected, subjected to freeze-disruption and then to extraction with water to obtain a skin extract.
The amount of hydroxyproline in the sera and the skin extract was analyzed by high performance liquid chromatography using ODS column ([…]×15 cm, GL Sciences Inc.) after protein was removed with an equal amount of 2% (w/v) sulfosalicylic acid and the second amino group was labeled with NBD-Cl (4-chloro-7-nitro-2,1,3-benzoxadiazole, Tokyo Chemical Industry Co., Ltd.).

Data set [2] concerns skin wrinkles or sagging. Nature of the data set: Parallel-group double-blind test, 10-level self-rating of facial skin condition. It counts as in vivo, human. The conditions noted are these: oral ingestion, 4 weeks, conclusion from Table 2. How it is done:
Females aged 47 to 65 years (21 subjects) who chronically suffer from dry skin and rough skin were divided into two groups. After a 2-week observation period, Group 1 (9 subjects) and Group 2 (12 subjects) ingested hard capsules of Example 6 and hard capsules of Comparative Example 2, respectively, for 4 weeks (2 capsules each morning and evening). The test was carried out by parallel-group double-blind test. At the start and the end of the period of ingesting hard capsules, the following questions 1 to 3 were addressed to the subjects (answer “1”: level 1, answer “10”: level 10) and the skin conditions of the subjects were evaluated by a 10-level rating system. • Question 1: Evaluate the level of wrinkles on your face.
1: Wrinkles all over the surface
10: No wrinkles • Question 2: Evaluate the elasticity of the skin of your face.
10: Extreme elasticity • Question 3: Evaluate the firmness of the skin of your face.
The improvement rate (%) was calculated according to Equation 1. Improvement rate (%)=average value of levels after intake/average value of levels before intake×100 [Equation 1]

For data set [3], the system named is synthesis of collagen in the skin. The data set can be described thus: Subcutaneous sponge implant: amount of hydroxyproline as index of collagen-synthesizing and tissue-restoring ability. The data set is classed as in vivo. As to conditions: rats, sponge pieces, Student's t-test p < 0.05. As for the experimental part:
F344/DuCrlCrlj rats (12 heads, 29-week-old male; purchased from Charles River Laboratories Japan, Inc.) were divided into 2 groups each consisting of 6 rats.
The rats of Group 1 and Group 2 were fed with the feed of Example 5 and the control feed of Comparative Example 1, respectively, ad libitum for 7 days. The abdominal area of each rat was shaved with clippers under anesthesia by intraperitoneal administration of pentobarbital, and cut sponge pieces (ca. 150 mg, 2 mm thick, ca. 38 mm×12 mm; Ivalon, Inc.) were inserted into two spots under the skin, followed by suturing. After further feeding for 7 days, the sponge pieces were taken out.
The sponge pieces were subjected to reaction using 6N hydrochloric acid (20 ml/piece) at 110° C. for 18 hours to decompose them with acid and heat. The products obtained by decomposition with acid and heat were diluted 10 times with 1M borate buffer (pH 10.6), and the amount of hydroxyproline was measured in the same manner as in Test Example 1 and was regarded as an index of the collagen-synthesizing ability and tissue-restoring ability of a rat.
The values were shown in terms of average value ±standard deviation and a test of statistical significance was performed by Student's t-test.

Turning to `O=C(O)[C@@H]1C[C@@H](O)CN1` [hydroxyproline, Trans-4-hydroxy-L-proline], the “movement of orally ingested hydroxyproline into blood and skin (free hydroxyproline in serum and skin extract)” value in data set [1] is “quickly moves into blood and skin”. In addition, the “wrinkles and sagging of the face” value in data set [2] is on record as “improved”. Also, the “amount of hydroxyproline derived from heat-decomposed collagen (versus control feed)” value in data set [3] is on record as “significantly increased”.

Values taken from patent US9433605B2, “Method for promoting synthesis of tissue collagen” (Kyowa Hakko Bio Co., Ltd., priority 2006, dated 2016).
